The source of these data is US20090315454A1, “IRIDIUM COMPLEX COMPOUND, ORGANIC ELECTROLUMINESCENT DEVICE OBTAINED BY USING THE SAME, AND USES OF THE DEVICE” (Showa Denko K.K., priority 2006, published 2009).

A short description of the data set: Solubility test (visual, complete dissolution at prescribed concentration). More on the design: key: A: completely dissolved; B: partially undissolved. To be noted: stirred at room temperature for one hour. The class given is physicochemical. On the procedure: The facial and meridional iridium complex compounds (A) synthesized in Example 1 and the facial iridium complex compounds (B) to (D) synthesized in Examples 2 to 4 were tested for solubility. The test was carried out by mixing the iridium complex compound with chloroform or toluene so that a prescribed concentration was obtained, and visually determining if the iridium complex compound was completely dissolved or partially undissolved after the mixture had been stirred at room temperature for one hour.
Iridium complex compounds Ir(ppy)3 (the following Formula (Y)) and Ir(Fppy)3 (the following Formula (X)) were tested for solubility. The test was carried out by mixing the iridium complex compound with chloroform or toluene so that a prescribed concentration was obtained, and visually determining if the iridium complex compound was completely dissolved or partially undissolved after the mixture had been stirred at room temperature for one hour.

In the case of `CCCCC(CCCC)c1ccnc(-c2c(F)cc(F)c[c]2[Ir]([c]2cc(F)cc(F)c2-c2cc(C(CCCC)CCCC)ccn2)[c]2cc(F)cc(F)c2-c2cc(C(CCCC)CCCC)ccn2)c1` [Compound (C) facial complex], under “chloroform”, the “Solubility at concentration 0.1 wt %” value was “A”, the “Solubility at concentration 0.5 wt %” value is on record as “A” and the “Solubility at concentration 1 wt %” value is “A”. In addition, where the note is “toluene”, the “Solubility at concentration 0.1 wt %” value is on record as “A”, the “Solubility at concentration 0.5 wt %” value is listed as “A” and the “Solubility at concentration 1 wt %” value is “B”.

On to `CCCCCc1ccnc(-c2c(F)cc(F)c[c]2[Ir]([c]2cc(F)cc(F)c2-c2cc(CCCCC)ccn2)[c]2cc(F)cc(F)c2-c2cc(CCCCC)ccn2)c1` [Compound (B) facial complex], for which, where the note is “chloroform”, the “Solubility at concentration 0.1 wt %” value is “A”, the “Solubility at concentration 0.5 wt %” value is recorded as “A” and the “Solubility at concentration 1 wt %” value is “A”. Under “toluene”, the “Solubility at concentration 0.1 wt %” value is “A”, the “Solubility at concentration 0.5 wt %” value is recorded as “B” and the “Solubility at concentration 1 wt %” value is “B”.

Turning to `CC(C)(C)c1ccnc(-c2[c-]cc(F)cc2F)c1.CC(C)(C)c1ccnc(-c2[c-]cc(F)cc2F)c1.CC(C)(C)c1ccnc(-c2[c-]cc(F)cc2F)c1.[Ir+3]` [Compound (A) meridional complex], where the note is “chloroform”, the “Solubility at concentration 0.1 wt %” value is given as “A”, the “Solubility at concentration 0.5 wt %” value is recorded as “A” and the “Solubility at concentration 1 wt %” value was “A”. For the setting “toluene”, the “Solubility at concentration 0.1 wt %” value is recorded as “A”, the “Solubility at concentration 0.5 wt %” value is “A” and the “Solubility at concentration 1 wt %” value is on record as “A”.

In the case of `CCCc1cc(-c2c(F)cc(F)c[c]2[Ir]([c]2cc(F)cc(F)c2-c2cc(CCC)c(CC)cn2)[c]2cc(F)cc(F)c2-c2cc(CCC)c(CC)cn2)ncc1CC` [Compound (D) facial complex], where the note is “chloroform”, the “Solubility at concentration 0.1 wt %” value is on record as “A”, the “Solubility at concentration 0.5 wt %” value is given as “A” and the “Solubility at concentration 1 wt %” value was “A”. For the setting “toluene”, the “Solubility at concentration 0.1 wt %” value is on record as “A”, the “Solubility at concentration 0.5 wt %” value is reported as “A” and the “Solubility at concentration 1 wt %” value was “A”.
